Series [1] can be described thus: Compound solubility in PBS (pH 7.4), LC-MS/MS. The settings on record: PBS (pH 7.4), pH 7.4, aqueous buffer, kinetic from dmso stock, Solubility (μM) Mean, Table 6-C, test concentration 100 μM (1% of DMSO), shaken (1000 rpm) 1 h at room temperature, n = 2. As for the experimental part:
• Test concentration: 100 μM (1% of DMSO) • Test systems: PBS (pH 7.4) • Incubation condition: shaken (1000 rpm) for 1 h at room temperature • Sample size: Duplicates (n=2) • Bioanalytical method: LC-MS/MS

The subject of series [2] is C57BL/6 Diet Induced Obese (DIO) mice. As to the kind of experiment: Oral (P.O.) administration study in DIO mice: in vivo activity, body weights. More on the design: species or system mouse. The settings on record: for Individual Body Weight: individual male animals; for Body weight, Mean / change in vivo at 2 mg/kg: male; for change in vivo at 2 mg/kg: Mus musculus, po, read-out: Body weight, %-Diff. The essentials: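 Male C57BL/6 DIO mice (21-22 weeks, 29.8-40.1 g) were gavage-acclimated with vehicle, then dosed orally once daily for 10 days at 2 mL/kg. Body weight was recorded daily before dosing. Cumulative change and AUC were analysed by one-way ANOVA with Dunnett's test.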

Series [3] shares this test system. As to the kind of experiment: Oral (P.O.) administration study in DIO mice: animal fate (mortality) and clinical observations. The following applies: individual male DIO mouse, 2 mg/kg; phase of fate Dosing, phase week 2, phase day 11. The essentials: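 Male C57BL/6 DIO mice received 2 mg/kg of each compound by oral gavage once daily for 10 days; vehicle was 1% methyl cellulose in citric acid/phosphate buffer. Mortality and clinical signs recorded alongside body weight, food intake and blood glucose; animals sacrificed Day 11.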

For series [4] the test system is unchanged. As to the kind of experiment: Oral (P.O.) administration study in DIO mice: blood glucose level after 6 hours of fasting. It counts as in vivo, mouse. The settings on record: 2 mg/kg oral gavage once daily for 10 days, compared with controls. As for the experimental part:
(§1) Dose formulations were administered by oral gavage once daily for 10 days at a dose volume of 2 mL/kg. Doses were based on the most recently recorded scheduled body weight.
Blood for blood glucose was collected from all animals via tail clip on Day 14 of the predose phase, and Day 11 of the dosing phase after 6 hours of fasting. A drop of blood from each animal was placed onto two different Accu-Chek® Aviva glucometers to assess glucose values. A third value was taken, if necessary.
(§2) Descriptive statistics (n, mean, standard error of the mean, standard deviation) were completed. Additionally, one-way analysis of variance followed by Dunnett's post-hoc test were performed on body weight (cumulative body weight change), glucose (glucose percent change), and food consumption (cumulative food consumption). Area under the curve (for body weight, cumulative body weight change, daily body weight change, and food consumption) was computed for treatment groups. An appropriate comparison test, such as one-way analysis of variance and Dunnett's, was performed on the group means for the area under the curve computations. Any additional statistical analysis and interpretation of the results were the responsibility of the sponsor.

Series [5] has the same test system. As to the kind of experiment: Oral (P.O.) administration study in DIO mice: food consumption. It counts as in vivo, mouse. The settings on record: 2 mg/kg oral gavage once daily for 10 days, compared with controls. Here is the method: as §1
A quantitative assessment of food consumption was recorded daily on Days 11 through 14 of the predose phase and daily prior to dosing during the dosing phase.
as §2

The conditions of series [6]: in vivo.
The mark [7] stands for this setting: 2 mg/kg oral gavage once daily for 10 days, compared with controls.

This is an account of results in patent US10662218B2, “Analogs of celastrol” (ERX Pharmaceuticals, Inc., priority 2015, dated 2020).

In brackets after ≈: the same amount, converted by molar mass. Several values for one entry are separate records, joined by “and”; a condition that tells them apart may be missing. Equal values may be shown once. Entries after “also recorded” stand apart in the source; their conditions may differ. Read-outs that look alike come from different tables or passages of the source.

`CC(=O)N[C@]1(C)CC[C@]2(C)CC[C@]3(C)C4=CC=C5C(=CC(=O)C(O)=C5C)[C@]4(C)CC[C@@]3(C)[C@@H]2C1` [ERX1168]: the solubility (usually the concentration that dissolves in the medium under given conditions) at 1 h in series [1] was found to be 5.05 µM (≈ 2.34 µg/mL). Also, in series [2] (setting [7]), the “area under the curve (AUC) for cumulative body weight change” value is “statistically significant decreases”. Besides, in series [2] (setting [7]), the “area under the curve (AUC) for daily body weight change” value was “statistically significant decreases”. Besides, the “cumulative body weight change” value in series [2] (setting [7]) is “statistically significant decreases”. For the same compound, the “Individual Body Weight” value in series [2] (2 mg/kg, Phase Day DSNG 3) was 30.7 g and 37.3 g and 34.4 g and 30.5 g and 28.3 g; in series [2] (2 mg/kg, Phase Day DSNG 4), 30.0 g and 37.5 g and 34.2 g and 29.1 g and 28.9 g; in series [2] (2 mg/kg, Phase Day DSNG 5) it was 29.2 g and 36.1 g and 33.2 g and 28.8 g and 28.0 g; in series [2] (2 mg/kg, Phase Day DSNG 6), 28.4 g and 33.9 g and 31.6 g and 27.0 g and 26.7 g; in series [2] (2 mg/kg, Phase Day DSNG 7) it was 28.9 g and 32.3 g and 30.7 g and 27.0 g and 27.3 g; in series [2] (2 mg/kg, Phase Day DSNG 8), 28.7 g and 32.7 g and 29.5 g and 27.7 g and 26.9 g. Further, the “Body weight, Mean” value in series [2] (DIO mice, 2 mg/kg, phase DSNG, Day 7) was determined as 29.2 g; in series [2] (DIO mice, 2 mg/kg, phase DSNG, Day 8), 29.1 g; in series [2] (DIO mice, 2 mg/kg, phase DSNG, Day 9), 30.0 g; in series [2] (DIO mice, 2 mg/kg, phase DSNG, Day 10) it was 29.2 g; in series [2] (DIO mice, 2 mg/kg, phase DSNG, Day 11), 29.2 g; in series [2] (Day 1, DSNG phase, 2 mg/kg, N=5), 34.5 g. The “Body weight, Mean” value in series [2] (Day 2, DSNG phase, 2 mg/kg, N=5) worked out at 34.0 g; in series [2] (Day 3, DSNG phase, 2 mg/kg, N=5), 32.2 g; in series [2] (Day 4, DSNG phase, 2 mg/kg, N=5), 31.9 g; in series [2] (Day 5, DSNG phase, 2 mg/kg, N=5), 31.1 g; in series [2] (Day 6, DSNG phase, 2 mg/kg, N=5), 29.5 g. Besides, the change in vivo at 2 mg/kg in series [2] (24 h, Day 1, DSNG phase, 2 mg/kg, difference of group mean) is 1%; in series [2] (48 h, Day 2, DSNG phase, 2 mg/kg, difference of group mean) it was -1%; in series [2] (72 h, Day 3, DSNG phase, 2 mg/kg, difference of group mean), -5%; in series [2] (96 h, Day 4, DSNG phase, 2 mg/kg, difference of group mean), -4%; in series [2] (120 h, Day 5, DSNG phase, 2 mg/kg, difference of group mean) it was -8%; in series [2] (144 h, Day 6, DSNG phase, 2 mg/kg, difference of group mean) it was -12%. The change in vivo at 2 mg/kg in series [2] (168 h, DIO mice, 2 mg/kg, phase DSNG, Day 7, difference of group mean from vehicle group 1) is -13%; in series [2] (192 h, DIO mice, 2 mg/kg, phase DSNG, Day 8, difference of group mean from vehicle group 1), -14%; in series [2] (216 h, DIO mice, 2 mg/kg, phase DSNG, Day 9, difference of group mean from vehicle group 1), -10%; in series [2] (240 h, DIO mice, 2 mg/kg, phase DSNG, Day 10, difference of group mean from vehicle group 1) it was -13%; in series [2] (264 h, DIO mice, 2 mg/kg, phase DSNG, Day 11, difference of group mean from vehicle group 1) it was -14%. In series [2] (individual male DIO mouse, 2 mg/kg, dosing phase day 1, 2 mg/kg), the “Individual Body Weight, DSNG 1” value is 33.1 g and 39.5 g and 36.9 g and 31.9 g and 31.1 g. In addition, the “Individual Body Weight, DSNG 2” value in series [2] (individual male DIO mouse, 2 mg/kg, dosing phase day 2, 2 mg/kg) was 32.5 g and 40.4 g and 36.2 g and 31.2 g and 29.9 g. The “Individual Body Weight, PRED 11” value in series [2] (individual male DIO mouse, group dosed 2 mg/kg, pre-dose phase day 11 (baseline), 2 mg/kg) was 35.6 g and 39.3 g and 37.3 g and 35.3 g and 33.0 g. The “Individual Body Weight, PRED 12” value in series [2] (individual male DIO mouse, group dosed 2 mg/kg, pre-dose phase day 12 (baseline), 2 mg/kg) is 35.2 g and 40.3 g and 37.2 g and 33.1 g and 31.0 g. In addition, the “Individual Body Weight, PRED 13” value in series [2] (individual male DIO mouse, group dosed 2 mg/kg, pre-dose phase day 13 (baseline), 2 mg/kg) is 35.0 g and 40.4 g and 37.2 g and 32.5 g and 30.6 g. Also, the “Individual Body Weight, PRED 14” value in series [2] (individual male DIO mouse, group dosed 2 mg/kg, pre-dose phase day 14 (baseline), 2 mg/kg) was 35.1 g and 41.2 g and 37.5 g and 33.3 g and 32.1 g. Besides, the “Individual Animal Fate: Fate Status” value in series [3] was “Scheduled Sacrifice”. Further, in series [4], the “glucose value percent change” value was “Statistically significant changes; also recorded: statistically significant decreases”. Further, the “area under the curve (AUC) for cumulative food intake” value in series [5] is recorded as “statistically significant decreases”. For the same compound, the cumulative food intake result in series [5] is “statistically significant decreases”.
In the case of `Cc1c(O)c(O)cc2c1C(=O)C=C1[C@@]2(C)CC[C@@]2(C)[C@@H]3C[C@](C)(C(=O)O)CC[C@]3(C)CC[C@]12C` [ERX1030], the Oral bioavailability entry in series [6] is listed as “−”.
